In US20260256859A1, “COMPOSITION FOR PREVENTING, AMELIORATING, OR TREATING TUBERCULOSIS COMPRISING EXTRACT OF PHILADELPHUS SP. PLANT AS ACTIVE INGREDIENT” (priority 2023, published 2026):

What was measured:
[1] = system: Mycobacterium tuberculosis H37Rv; experiment: Intracellular M. tuberculosis CFU count in infected bone marrow-derived macrophages after treatment with extract or anti-tuberculosis agent; type: cell-based; details: C57BL/6 mouse BMDM, H37Rv MOI=1, anti-tuberculosis agent 100 ng/mL, 48 hours; FIG. 2
[2] = system: Mycobacterium tuberculosis H37Rv; experiment: MIC and FIC of Philadelphus tenuifolius leaf extract alone or combined with an anti-tuberculosis agent in Rv-infected BMDM; type: cell-based; details: Rv-infected mouse BMDM, 48 hours; for MIC combination, RIF (antibiotic component): MIC of the antibiotic when combined with Philadelphus tenuifolius leaf extract; for MIC alone, Antibiotics: MIC = lowest concentration inhibiting more than 99% of bacterial growth

SMILES: CC[C@@H](CO)NCCN[C@@H](CC)CO [ethambutol]
- number of intracellular M. tuberculosis in mouse bone marrow-derived macrophages (CFU) vs infection control (Rv) [1]: statistically significantly reduced
- MIC combination, RIF (antibiotic component) [2]: 0.3 µg/mL
- MIC alone, Antibiotics [2]: 4 µg/mL

SMILES: NNC(=O)c1ccncc1 [isoniazid]
- number of intracellular M. tuberculosis in mouse bone marrow-derived macrophages (CFU) vs infection control (Rv) [1]: statistically significantly reduced
- MIC combination, RIF (antibiotic component) [2]: 0.03 µg/mL
- MIC alone, Antibiotics [2]: 0.1 µg/mL

SMILES: CO[C@H]1/C=C/O[C@@]2(C)Oc3c(C)c(O)c4c(O)c(c(/C=N/N5CCN(C)CC5)c(O)c4c3C2=O)NC(=O)/C(C)=C\C=C\[C@H](C)[C@H](O)[C@@H](C)[C@@H](O)[C@@H](C)[C@H](OC(C)=O)[C@@H]1C [rifampicin]
- MIC combination, RIF (antibiotic component) [2]: 0.03 µg/mL
- MIC alone, Antibiotics [2]: 0.1 µg/mL
